Test [1] addresses T1, Histone deacetylase 2 (Homo sapiens, UniProt Q92769). As to the kind of experiment: Inhibition of full length C-terminal FLAG-tagged HDAC2 (unknown origin) assessed as rate constant (k-1) of EI complex using (Ac-Leu-Gly-Lys(Ac)-AMC as substrate measured every 30 sec for 60 mins by fluorescence based assay.
In test [2] the target is T2, Histone deacetylase 1 (Homo sapiens, UniProt Q13547). As to the kind of experiment: Inhibition of full length C-terminal His-tagged HDAC1 (unknown origin) assessed as rate constant (k-1) of EI complex using (Ac-Leu-Gly-Lys(Ac)-AMC as substrate measured every 30 sec for 60 mins by fluorescence based assay.
Test [3] concerns the target T1, Histone deacetylase 2. As to the kind of experiment: Inhibition of full length C-terminal FLAG-tagged HDAC2 (unknown origin) using (Ac-Leu-Gly-Lys(Ac)-AMC as substrate preincubated with enzyme for 30 mins followed by substrate addition and measured after 30 mins by fluorescence based assay.
The target of test [4] is T2, Histone deacetylase 1. Description: Inhibition of full length C-terminal His-tagged HDAC1 (unknown origin) using (Ac-Leu-Gly-Lys(Ac)-AMC as substrate preincubated with enzyme for 1 hrs followed by substrate addition and measured after 30 mins by fluorescence based assay.
Test [5] deals with T1, Histone deacetylase 2. The following applies: time 60.0 min.
Test [6] deals with T1, Histone deacetylase 2. As to the kind of experiment: Inhibition of full length C-terminal FLAG-tagged HDAC2 (unknown origin) using (Ac-Leu-Gly-Lys(Ac)-AMC as substrate preincubated with enzyme for 1 hrs followed by substrate addition and measured after 30 mins by fluorescence based assay.
The target of test [7] is T2, Histone deacetylase 1. As to the kind of experiment: Inhibition of full length C-terminal His-tagged HDAC1 (unknown origin) assessed as inhibition constant (Ki) using (Ac-Leu-Gly-Lys(Ac)-AMC as substrate measured every 30 sec for 60 mins by fluorescence based assay.
Test [8] deals with T2, Histone deacetylase 1. As to the kind of experiment: Inhibition of full length C-terminal His-tagged HDAC1 (unknown origin) using (Ac-Leu-Gly-Lys(Ac)-AMC as substrate preincubated with enzyme for 2 hrs followed by substrate addition and measured after 30 mins by fluorescence based assay.
In test [9] the target is T1, Histone deacetylase 2. As to the kind of experiment: Inhibition of full length C-terminal FLAG-tagged HDAC2 (unknown origin) using (Ac-Leu-Gly-Lys(Ac)-AMC as substrate preincubated with enzyme for 2 hrs followed by substrate addition and measured after 30 mins by fluorescence based assay.
For test [10], the target named is T2, Histone deacetylase 1. The following applies: time 60.0 min.
For test [11], the target named is T2, Histone deacetylase 1. Description: Inhibition of full length C-terminal His-tagged HDAC1 (unknown origin) using (Ac-Leu-Gly-Lys(Ac)-AMC as substrate preincubated with enzyme for 30 mins followed by substrate addition and measured after 30 mins by fluorescence based assay.
Test [12] has as its target T2, Histone deacetylase 1. As to the kind of experiment: Inhibition of full length C-terminal His-tagged HDAC1 (unknown origin) assessed as rate constant (k1) of EI complex using (Ac-Leu-Gly-Lys(Ac)-AMC as substrate measured every 30 sec for 60 mins by fluorescence based assay.
Test [13] has as its target T1, Histone deacetylase 2. As to the kind of experiment: Inhibition of full length C-terminal FLAG-tagged HDAC2 (unknown origin) assessed as rate constant (k1) of EI complex using (Ac-Leu-Gly-Lys(Ac)-AMC as substrate measured every 30 sec for 60 mins by fluorescence based assay.
In test [14] the target is T1, Histone deacetylase 2. As to the kind of experiment: Inhibition of full length C-terminal FLAG-tagged HDAC2 (unknown origin) assessed as inhibition constant (Ki) using (Ac-Leu-Gly-Lys(Ac)-AMC as substrate measured every 30 sec for 60 mins by fluorescence based assay.

The structures appear in SMILES notation.

T2 sequence (Q13547 whole entry): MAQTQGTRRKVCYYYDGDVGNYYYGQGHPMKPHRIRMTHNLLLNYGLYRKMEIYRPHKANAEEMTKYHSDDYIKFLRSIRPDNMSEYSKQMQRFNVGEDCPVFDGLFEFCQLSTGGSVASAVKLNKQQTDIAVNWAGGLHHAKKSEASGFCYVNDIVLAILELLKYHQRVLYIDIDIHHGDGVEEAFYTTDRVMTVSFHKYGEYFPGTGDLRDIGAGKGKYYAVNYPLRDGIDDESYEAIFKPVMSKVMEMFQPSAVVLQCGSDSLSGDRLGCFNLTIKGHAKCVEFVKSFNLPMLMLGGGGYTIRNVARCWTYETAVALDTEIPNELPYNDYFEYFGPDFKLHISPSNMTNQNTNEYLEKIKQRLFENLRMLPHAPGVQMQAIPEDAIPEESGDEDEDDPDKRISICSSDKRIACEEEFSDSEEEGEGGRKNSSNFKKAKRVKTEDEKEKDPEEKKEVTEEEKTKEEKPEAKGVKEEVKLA
T1 sequence (Q92769 whole entry): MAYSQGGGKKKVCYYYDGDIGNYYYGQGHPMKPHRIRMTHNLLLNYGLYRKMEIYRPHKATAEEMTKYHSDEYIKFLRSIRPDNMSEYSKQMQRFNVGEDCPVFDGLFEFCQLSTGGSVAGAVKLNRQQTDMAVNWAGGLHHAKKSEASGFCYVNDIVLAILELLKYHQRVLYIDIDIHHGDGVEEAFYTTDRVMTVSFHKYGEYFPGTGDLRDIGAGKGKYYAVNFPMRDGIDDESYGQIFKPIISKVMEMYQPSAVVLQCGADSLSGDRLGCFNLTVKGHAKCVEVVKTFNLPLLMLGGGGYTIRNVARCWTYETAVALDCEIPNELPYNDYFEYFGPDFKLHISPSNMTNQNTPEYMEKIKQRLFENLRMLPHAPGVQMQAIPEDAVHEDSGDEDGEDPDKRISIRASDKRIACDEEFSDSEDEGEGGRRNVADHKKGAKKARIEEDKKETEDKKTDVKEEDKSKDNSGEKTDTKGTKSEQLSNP

On to `CCCNNC(=O)c1ccc(CNC(=O)/C=C/c2ccccc2)cc1`, for which the K on Histone deacetylase 2 [1] was 5 10^-3/min; on Histone deacetylase 1 [2] it was 3 10^-3/min; on Histone deacetylase 1 [12], 7.8 10^-5/nM/min; at Histone deacetylase 2 [13], 5.1 10^-5/nM/min. In addition, the IC50 at Histone deacetylase 2 [3] was 48 nM; against Histone deacetylase 1 [4] it was 7.07 nM; at Histone deacetylase 2 [6], 24.8 nM; at Histone deacetylase 1 [8], 4.89 nM; against Histone deacetylase 2 [9], 14 nM; at Histone deacetylase 1 [11], 11.3 nM. Further, the T1/2 on Histone deacetylase 2 [5] came to 2.17 h; on Histone deacetylase 1 [10], 3.67 h. Further, the Ki at Histone deacetylase 1 [7] came to 40 nM; at Histone deacetylase 2 [14], 103 nM.

On Histone deacetylase 2 [5], `Nc1ccccc1NC(=O)c1ccc(CNC(=O)OCc2cccnc2)cc1` yielded a T1/2 greater than 4 h.

Values taken from ChEMBL document CHEMBL5126568, “Determination of Slow-Binding HDAC Inhibitor Potency and Subclass Selectivity” (ACS Med Chem Lett, 2022).
